# Measured values as given in patent US20210330611A1, “THERAPY FOR NEUROLOGICAL DISEASES/DISORDERS” (priority 2020, published 2021).
# Where two headings read alike, the source gives them in different places.
# What was measured:
# [1] = tested on: LPS-induced microglia activation; assay: Image-based assay of LPS-induced microglia activation (HTS and dose response); format: cell-based, rat
# [2] = tested on: fibrin- and LPS-induced microglia activation; assay: cells; format: cell-based, rat; conditions: for inhibition at 10 µM: Rattus norvegicus
# [3] = tested on: mouse BMDMs; assay: ROS production (DHE) in fibrin-stimulated mouse BMDMs; format: cell-based; conditions: fibrin 24 h, 5 μM inhibitor, FIG. 6b
# Procedure: Bone marrow—derived macrophage cultures. […]. In brief, bone-marrow cells were isolated from tibia and femur of C57BL/6 mice, Ggt1^+/+ mice or Ggt1^dwg/dwg mice and cultured in RPMI-1640 medium supplemented with 10% FBS, 1% penicillin-streptomycin (Corning), and 10 ng/ml murine M-CSF (14-8983-80, Thermo Fisher Scientific). On days 6-7, adherent BMDMs were harvested by adding PBS with 5 mM EDTA to the plates and used for assays.
# Human macrophage cultures. Human peripheral blood mononuclear cells (PBMCs) were purchased from AllCells, LLC (Alameda, Calif.). To differentiate PBMC into monocyte-derived macrophages, 2×10^6 PBMC/mL were plated in RPMI-1640 media supplemented with 10% FBS, 1% penicillin-streptomycin (Corning), and 50 ng/ml human M-CSF (300-25, Peprotech) in tissue-culture treated dishes (Corning). After 24 h, non-adherent cells were removed, and adherent cells were cultivated for 7-8 additional days at 37° C. in 5% CO2 to promote their full differentiation into macrophages. Oxidant detection with DHE. Intracellular concentrations of ROS were measured using dihydroethidium (DHE) as described (9). […] The DHE fluorescence was detected at an excitation/emission wavelength of 518 nm/605 nm using a SpectraMax M5 microplate reader (Molecular Devices) with SoftMax Pro 5.2 software (Phoenix Technologies Ltd.).
# [4] = biological target: T1, GGT (Mus musculus, UniProt Q60928); assay: GGT activity assay in fibrin-stimulated BMDMs (enzymatic kit, ProteoGREEN-gGlu probe); format: cell-based; conditions: FIG. 6c, FIG. 13A, B
# T1 construct: GGT activity in BMDMs left unstimulated or stimulated with fibrin after acivicin or vehicle control treatment; endogenous in cells; host or cells: mouse bone marrow-derived macrophages (BMDMs), fibrin-stimulated
# Procedure: (§1) GGT activity assay. GGT activity was measured using the MaxDiscovery gamma-Glutamyl Transferase (GGT) Enzymatic Assay Kit (Bioo Scientific) according to the manufacturer's protocol. […]. For in vivo GGT activity assay, spinal cord tissues from the onset of MOG35-55 EAE or LPS-injected substantia nigra area at 12 h were prepared. Tissues were homogenized in 0.1 M Tris-HCl and centrifuged at 13,000 g for 30 min at 4° C. The supernatant was collected and subsequently assessed for GGT activity. The absorbance at 405 nm was detected with a SpectraMax M5 microplate reader (Molecular Devices) with SoftMax Pro 5.2 software (Phoenix Technologies Ltd.). The GGT activity in IU/1 was calculated following the manufacturer's protocol by multiplying the average increase in absorbance at 405 nm over 10 min GGT activity was also measured using a fluorescent probe, ProteoGREEN-gGlu (Goryo Chemical, Hokkaido, Japan), according to the manufacturer's protocol. Cultured BMDMs were plated on 96-well, black μ-clear-bottom microtiter plates (Greiner Bio-One) pre-coated with 25 μg/ml fibrin. […] The fluorescence intensity (excitation/emission filter pairs of 488 nm/520 nm) was measured using a SpectraMax M5 microplate reader (Molecular Devices) with SoftMax Pro 5.2 software (Phoenix Technologies).
# [5] = tested on: intracellular GSH; format: cell-based, mouse
# Procedure: Real-time imaging of glutathione. The real-time GSH dynamics in living BMDMs was determined with the fluorescent GSH probe, RealThiol RT-AM as described (37). Cells were plated on 2-well chamber slide (Nunc) pre-coated with 25 μg/ml fibrin. Cells were stimulated with fibrin with or without 5 μM acivicin or GGsTop. The GSH synthesis inhibitor, buthionine sulfoximine (BSO, Sigma-Aldrich) was used as positive control for reducing intracellular GSH levels at 100 μM. After 24 h incubation, cells were loaded with 1 μM RT-AM probe and were incubated for 5 min before imaging. The cells were kept at 37° C. during the entire experiment. […] For each independent experiment, laser power and detector settings were set using the control/untreated cells incubated with RT-AM alone as reference. All settings were kept constant throughout the experiment. […] The ratio calculated for each treatment was expressed as percentage from that of the untreated cells (control).
# [6] = tested on: GGT; assay: GGT activity in spinal cord of MOG35-55 EAE mice; format: in vivo, mouse; conditions: FIG. 7e
# Procedure: as §1
# [7] = Serum protein carbonyl content assay in MOG35-55 EAE mice; format: in vivo, mouse; conditions: FIG. 7g
# Procedure: Protein carbonyl content assay. Blood was isolated from EAE mice via terminal cardiac puncture, and serum levels of protein carbonylation were measured with OxiSelect™ Protein Carbonyl ELISA (Cell Biolabs) according to the manufacturer's protocol. The absorbance at 450 nm was measured using a SpectraMax M5 microplate reader (Molecular Devices) with SoftMax Pro 5.2 software (Phoenix Technologies Ltd.).
# [8] = tested on: chronic NOD MOG35-55 EAE; assay: Immunohistochemistry of spinal cord in chronic NOD MOG35-55 EAE; format: in vivo, mouse
# [9] = tested on: primary rat microglia; assay: Cell toxicity (dead cells, size <150 μm2) in coated fibrin (cFib) assay;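 for Fibrin % cell toxicity: share of dead cells sized under 150 µm2 at 10 µM in fibrin-stimulated microglia HTS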
# T1 sequence (Q60928 380-568): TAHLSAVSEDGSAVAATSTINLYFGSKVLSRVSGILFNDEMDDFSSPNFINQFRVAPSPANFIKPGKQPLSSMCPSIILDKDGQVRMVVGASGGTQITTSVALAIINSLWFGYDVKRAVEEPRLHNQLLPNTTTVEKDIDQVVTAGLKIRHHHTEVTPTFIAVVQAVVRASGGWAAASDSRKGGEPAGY
# T1 sequence (Q60928 1-379): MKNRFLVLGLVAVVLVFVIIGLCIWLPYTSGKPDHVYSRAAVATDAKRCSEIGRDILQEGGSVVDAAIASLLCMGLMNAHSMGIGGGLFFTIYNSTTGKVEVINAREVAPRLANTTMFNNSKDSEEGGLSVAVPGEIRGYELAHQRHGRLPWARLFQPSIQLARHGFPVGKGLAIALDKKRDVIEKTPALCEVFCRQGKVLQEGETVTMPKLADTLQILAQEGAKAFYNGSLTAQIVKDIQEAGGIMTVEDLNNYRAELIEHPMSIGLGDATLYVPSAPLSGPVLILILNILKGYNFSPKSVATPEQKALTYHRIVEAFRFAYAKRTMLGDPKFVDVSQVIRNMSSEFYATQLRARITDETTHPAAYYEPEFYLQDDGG
compound,measurement,setting,value
"N[C@H](C(=O)O)[C@@H]1CC(Cl)=NO1 [Acivicin, (2S)-2-amino-2-[(5S)-3-chloro-4,5-dihydro-1,2-oxazol-5-yl] acetic acid]",IC50,"[1]; Rattus norvegicus, Microglia, 48 h, Table 1, dose response 0.001-20 μM, triplicates, primary rat microglia, 48 h, read-out: LPS IC50",1 µM
same,inhibition at 10 µM,"[1]; Rattus norvegicus, Microglia, 48 h, primary microglia HTS, LPS stimulation, increased cell size (>800 μm^2) as marker of activation, read-out: LPS % inhibition",93%
same,IC50,"[1]; Rattus norvegicus, Microglia, LPS-induced microglia activation, dose response, read-out: LPS IC50 (uM) (Suppl. Table 7)",1 µM
same,IC50,"[1]; Rattus norvegicus, Microglia, Table 7, read-out: LPS_IC50",1.66 µM
same,IC50,"[1]; Rattus norvegicus, Microglia, dose response, LPS-induced microglia activation, read-out: LPS IC50",1 µM
same,LPS-induced microglial activation,"[1]; dose-dependent, FIG. 6a",inhibited
same,Quadrant (FIG. 5b),"[2]; HTS of 1907 compounds, quadrant by fibrin and LPS inhibition",Q2
same,inhibition at 10 µM,"[2]; Microglia, HTS hit classification, read-out: Hit",> 50%
same,inhibition at 10 µM,"[2]; hit classification in microglia HTS, read-out: Cherry-picked Hit (Suppl. Table 7)",> 50%
same,Quadrant (FIG. 5b),"[2]; Table 1, screen at 10 μM",Q2
same,Quadrant (FIG. 5b),"[2]; Table 2, screen at 10 μM",Q2
same,Activity,"[2]; Table 7, fib = fibrin, LPS, tox = toxicity",fib/LPS
same,Quadrant (FIG. 5b),[2]; quadrant by fibrin and LPS inhibition in HTS of 1907 compounds,Q2
same,ROS generation (DHE) in mouse macrophages,[3],decreased
same,fibrin-induced GGT activity in BMDMs,[4],inhibited
same,fibrin-induced degradation of glutathione (RealThiol F405/F488),[5],inhibited
same,GGT activity in the EAE spinal cord,[6],decreased
same,serum protein carbonyl content,[7],markedly reduced
same,demyelination (MBP),"[8]; chronic phase, FIG. 8c",reduced
same,NADPH oxidase subunit gp91-phox,"[8]; chronic phase, FIG. 8d",reduced
same,axonal damage (SMI-32),"[8]; chronic phase, FIG. 8d",reduced
same,inducible nitric oxide synthase (iNOS),"[8]; chronic phase, FIG. 8d",reduced
same,expression of GGT1,"[8]; mouse, in vivo",reduced
same,cell toxicity in microglia dose response,"[9]; <20 μM, FIG. 6a",without cell toxicity
same,Fibrin % cell toxicity,"[9]; primary microglia HTS, fibrin stimulation, decreased size (<150 μm^2) as marker of toxicity",2%
